In the NIST ThermoML archive (doi:10.1016/j.jct.2007.08.002):
Several values for one entry are separate records, joined by “and”; a condition that tells them apart may be missing. Equal values may be shown once. Numbers after ± are expanded uncertainties.

Legend:
[1] = for vapor or sublimation pressure: Crystal 1; for Triple point temperature: Adiabatic calorimetry
[2] = molar heat capacity at constant pressure; details: 101.33 kPa, Small (less than 1 g) adiabatic calorimetry

NC12CC3CC(CC(C3)C1)C2 [tricyclo(3.3.1.1:3,7)decan-1-amine]
Details	molar heat capacity at constant pressure [J/K/mol]	vapor or sublimation pressure
[1], 291.05 K, Calculated from knudsen effusion weight loss	–	0.00621 ± 0.00087 kPa
[1], 291.07 K, Calculated from knudsen effusion weight loss	–	0.00627 ± 0.00088 kPa
[1], 291.2 K, Transpiration method	–	0.00632 ± 0.00032 kPa
[1], 293.54 K, Calculated from knudsen effusion weight loss	–	0.00757 ± 0.0011 kPa
[1], 293.55 K, Calculated from knudsen effusion weight loss	–	0.00752 ± 0.0011 kPa
[1], 294.2 K, Transpiration method	–	0.00832 ± 0.00042 kPa
[1], 297.1 K, Transpiration method	–	0.0107 ± 0.0005 kPa
[1], 300.1 K, Transpiration method	–	0.0137 ± 0.0007 kPa
[1], 303.2 K, Transpiration method	–	0.0186 ± 0.0009 kPa
[1], 305.6 K, Transpiration method	–	0.0223 ± 0.0011 kPa
[1], 305.94 K, Calculated from knudsen effusion weight loss	–	0.0211 ± 0.0035 kPa
[1], 305.98 K, Calculated from knudsen effusion weight loss	–	0.0204 ± 0.0034 kPa
[1], 308.1 K, Transpiration method	–	0.027 ± 0.0014 kPa
[1], 308.52 K, Calculated from knudsen effusion weight loss	–	0.0263 ± 0.0045 kPa
[1], 310.4 K, Transpiration method	–	0.0291 ± 0.0015 kPa
[1], 310.94 K, Calculated from knudsen effusion weight loss	–	0.0309 ± 0.0054 kPa and 0.0315 ± 0.0055 kPa
[1], 313.2 K, Transpiration method	–	0.0396 ± 0.002 kPa
[1], 318 K, Transpiration method	–	0.0535 ± 0.0027 kPa
[1], 318.3 K, Transpiration method	–	0.0549 ± 0.0027 kPa
[1], 323.3 K, Transpiration method	–	0.0777 ± 0.0039 kPa
[1], 328.1 K, Transpiration method	–	0.108 ± 0.005 kPa
[1], 333.4 K, Transpiration method	–	0.148 ± 0.007 kPa and 0.153 ± 0.008 kPa
[1], 338.3 K, Transpiration method	–	0.2 ± 0.01 kPa
[1], 338.5 K, Transpiration method	–	0.205 ± 0.01 kPa
[1], 343.4 K, Transpiration method	–	0.269 ± 0.014 kPa
[1], 343.6 K, Transpiration method	–	0.286 ± 0.014 kPa
[2], 5 K, Crystal 3	0.4688 ± 0.025	–
[2], 10 K, Crystal 3	3.505 ± 0.062	–
[2], 15 K, Crystal 3	9.163 ± 0.12	–
[2], 20 K, Crystal 3	15.65 ± 0.17	–
[2], 25 K, Crystal 3	21.75 ± 0.19	–
[2], 30 K, Crystal 3	26.96 ± 0.2	–
[2], 35 K, Crystal 3	31.21 ± 0.22	–
[2], 40 K, Crystal 3	34.7 ± 0.24	–
[2], 45 K, Crystal 3	37.68 ± 0.26	–
[2], 50 K, Crystal 3	40.29 ± 0.27	–
[2], 60 K, Crystal 3	44.98 ± 0.29	–
[2], 70 K, Crystal 3	49.57 ± 0.32	–
[2], 80 K, Crystal 3	54.53 ± 0.34	–
[2], 90 K, Crystal 3	59.87 ± 0.39	–
[2], 100 K, Crystal 3	65.39 ± 0.42	–
[2], 110 K, Crystal 3	71.11 ± 0.45	–
[2], 120 K, Crystal 3	77.06 ± 0.47	–
[2], 130 K, Crystal 3	83.31 ± 0.5	–
[2], 140 K, Crystal 3	89.8 ± 0.5	–
[2], 150 K, Crystal 3	96.61 ± 0.58	–
[2], 160 K, Crystal 3	103.8 ± 0.58	–
[2], 170 K, Crystal 3	111.5 ± 0.67	–
[2], 180 K, Crystal 3	119.5 ± 0.67	–
[2], 190 K, Crystal 3	128 ± 0.75	–
[2], 200 K, Crystal 3	136.9 ± 0.75	–
[2], 210 K, Crystal 3	146.4 ± 0.83	–
[2], 220 K, Crystal 3	156.5 ± 0.83	–
[2], 230 K, Crystal 3	167.1 ± 0.92	–
[2], 240 K, Crystal 3	178.3 ± 1	–
[2], 241.4 K, Crystal 2	179.9 ± 1	–
[2], 241.4 K, Crystal 3	179.9 ± 1	–
[2], 250 K, Crystal 2	190.2 ± 1	–
[2], 260 K, Crystal 2	202.7 ± 1.1	–
[2], 270 K, Crystal 2	215.9 ± 1.2	–
[2], 280 K, Crystal 2	230 ± 1.2	–
[2], 284.6 K, Crystal 1	263.6 ± 1.4	–
[2], 284.6 K, Crystal 2	236.6 ± 1.2	–
[2], 290 K, Crystal 1	264.7 ± 1.4	–
[2], 298.15 K, Crystal 1	266.4 ± 1.4	–
[2], 300 K, Crystal 1	266.8 ± 1.4	–
[2], 310 K, Crystal 1	268.9 ± 1.4	–
[2], 320 K, Crystal 1	271.1 ± 1.4	–
[2], 330 K, Crystal 1	273.1 ± 1.4	–
[2], 340 K, Crystal 1	275.5 ± 1.4	–
[2], 350 K, Crystal 1	278.5 ± 1.4	–
[2], 360 K, Crystal 1	282.1 ± 1.5	–
[2], 370 K, Crystal 1	286.4 ± 1.5	–

Details	mass density [kg/m3]
[1], 298.15 K, 101.33 kPa, Crystal 3, Pycnometric method	1100 ± 100

[1]
Details	Triple point temperature [K]
Crystal 2	284.6 ± 0.1
Crystal 3	241.4 ± 0.1
